Data reported in patent US11912686B2 (Gilead Sciences, Inc., priority 2020, dated 2024).

These compounds were tested against human LPAR1 (Homo sapiens (Human), UniProt Q92633) (assay: LPAR1 intracellular calcium mobilization assay (antagonist mode, FLIPR)). Details: CHO-K1 EDG2 cells expressing human LPAR1, LPA 18:2 at EC80 (100 nM), test compound 0.5 nM to 10 μM.
human LPAR1, sequence (Q92633 whole entry): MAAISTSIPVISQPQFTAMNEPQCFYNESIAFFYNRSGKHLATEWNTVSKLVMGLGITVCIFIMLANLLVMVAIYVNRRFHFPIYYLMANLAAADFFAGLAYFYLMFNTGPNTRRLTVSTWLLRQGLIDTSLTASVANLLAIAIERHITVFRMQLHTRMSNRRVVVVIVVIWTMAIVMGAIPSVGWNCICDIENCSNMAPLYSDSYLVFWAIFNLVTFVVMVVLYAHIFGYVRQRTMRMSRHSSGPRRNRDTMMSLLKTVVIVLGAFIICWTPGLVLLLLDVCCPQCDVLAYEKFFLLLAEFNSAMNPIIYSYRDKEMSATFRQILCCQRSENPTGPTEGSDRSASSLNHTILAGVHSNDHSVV
Type: cell-based
With `C[C@@H](OC(=O)Nc1c(-c2ccc(NC(=O)c3cncc(F)c3Cl)cn2)nnn1C)c1cc(F)cnc1F` [Compound 263, (R)-1-(2,5-difluoropyridin-3-yl)ethyl (4-(5-(4-chloro-5-fluoronicotinamido)pyridin-2-yl)-1-methyl-1H-1,2,3-triazol-5-yl)carbamate] the EC50 was 691 nM.
With `COC(=O)Nc1ccc(-c2nnn(C)c2NC(=O)O[C@H](CF)c2cccc(F)c2)nc1` [Compound 19, (S)-2-fluoro-1-(3-fluorophenyl)ethyl (4-(5-((methoxycarbonyl)amino)pyridin-2-yl)-1-methyl-1H-1,2,3-triazol-5-yl)carbamate] the EC50 was 276 nM.
In the case of `C[C@@H](OC(=O)Nc1c(-c2ccc(NC(=O)C3(CN)CCC3)cn2)nnn1C)c1cc(F)cnc1F` [Compound 303, (R)-1-(2,5-difluoropyridin-3-yl)ethyl (4-(5-(1-(aminomethyl)cyclobutane-1-carboxamido)pyridin-2-yl)-1-methyl-1H-1,2,3-triazol-5-yl)carbamate], the EC50 is reported as 565 nM.
`C[C@@H](OC(=O)Nc1c(-c2ccc(NC(=O)CO)cn2)nnn1C)c1cccnc1Cl` [Compound 126, (R)-1-(2-chloropyridin-3-yl)ethyl (4-(5-(2-hydroxyacetamido)pyridin-2-yl)-1-methyl-1H-1,2,3-triazol-5-yl)carbamate] gave an EC50 of 1830 nM.
Compound `C[C@@H](OC(=O)Nc1c(-c2ccc(NC(=O)c3ccc(C#N)nc3)cn2)nnn1C)c1cccnc1Cl` [Compound 99, (R)-1-(2-chloropyridin-3-yl)ethyl (4-(5-(6-cyanonicotinamido)pyridin-2-yl)-1-methyl-1H-1,2,3-triazol-5-yl)carbamate] has an EC50 of 53.9 nM.
Compound `C[C@@H](OC(=O)Nc1c(-c2cnc(NC(=O)c3cnc(C(F)F)nc3)cn2)nnn1C)c1cccnc1Cl` [Compound 324, (R)-1-(2-chloropyridin-3-yl)ethyl (4-(5-(2-(difluoromethyl)pyrimidine-5-carboxamido)pyrazin-2-yl)-1-methyl-1H-1,2,3-triazol-5-yl)carbamate] has an EC50 of 53.7 nM.
`C[C@@H](OC(=O)Nc1c(-c2ccc(NC(=O)c3cncc(C(F)F)c3)cn2)nnn1C)c1cc(F)cnc1F` [Compound 219, (R)-1-(2,5-difluoropyridin-3-yl)ethyl (4-(5-(5-(difluoromethyl)nicotinamido)pyridin-2-yl)-1-methyl-1H-1,2,3-triazol-5-yl)carbamate] showed an EC50 of 37.7 nM.
`COC(=O)Nc1ccc(-c2nnn(C)c2NC(=O)O[C@H](C)c2cccnc2Cl)cc1` [Compound 7, (R)-1-(2-chloropyridin-3-yl)ethyl (4-(4-((methoxycarbonyl)amino)phenyl)-1-methyl-1H-1,2,3-triazol-5-yl)carbamate] gave an EC50 of 315 nM.
Work on `C[C@@H](OC(=O)Nc1c(-c2ccc(NC(=O)C3(C#N)CCNCC3)cn2)nnn1C)c1cc(F)cnc1F` [Compound 299, (R)-1-(2,5-difluoropyridin-3-yl)ethyl (4-(5-(4-cyanopiperidine-4-carboxamido)pyridin-2-yl)-1-methyl-1H-1,2,3-triazol-5-yl)carbamate] yielded an EC50 of 4990 nM.
`CC#CC(=O)Nc1ccc(-c2nnn(C)c2NC(=O)O[C@H](C)c2cccnc2Cl)nc1` [Compound 76, (R)-1-(2-chloropyridin-3-yl)ethyl (4 (5-(but-2-ynamido)pyridin-2-yl)-1-methyl-1H-1,2,3-triazol-5-yl)carbamate] showed an EC50 of 275 nM.
For `CC(=O)Nc1cnc(-c2nnn(C)c2NC(=O)O[C@H](C)c2cccnc2Cl)cc1F` [Compound 10, (R)-1-(2-chloropyridin-3-yl)ethyl (4-(5-acetamido-4-fluoropyridin-2-yl)-1-methyl-1H-1,2,3-triazol-5-yl)carbamate], the EC50 was 1020 nM.
Compound `Cc1ccc(C(=O)Nc2ccc(-c3nnn(C)c3NC(=O)O[C@H](C)c3cc(F)cnc3F)nc2)cn1` [Compound 221, (R)-1-(2,5-difluoropyridin-3-yl)ethyl (1-methyl-4-(5-(6-methylnicotinamido)pyridin-2-yl)-1H-1,2,3-triazol-5-yl)carbamate] has an EC50 of 374 nM.
In the case of `C[C@@H](OC(=O)Nc1c(-c2ccc(NC(=O)C3(C(N)=O)CC3)cn2)nnn1C)c1cccnc1Cl` [Compound 92, (R)-1-(2-chloropyridin-3-yl)ethyl (4-(5-(1-carbamoylcyclopropane-1-carboxamido)pyridin-2-yl)-1-methyl-1H-1,2,3-triazol-5-yl)carbamate], the EC50 is reported as 601 nM.
For `C[C@@H](OC(=O)Nc1c(-c2ccc(NC(=O)c3ccncc3)cn2)nnn1C)c1cccnc1Cl` [Compound 61, (R)-1-(2-chloropyridin-3-yl)ethyl (4-(5-(isonicotinamido)pyridin-2-yl)-1-methyl-1H-1,2,3-triazol-5-yl)carbamate], the EC50 was 134 nM.
For `C[C@@H](OC(=O)Nc1c(-c2ccc(NC(=O)C3OCCO3)cn2)nnn1C)c1cccnc1Cl` [Compound 153, (R)-1-(2-chloropyridin-3-yl)ethyl (4-(5-(1,3-dioxolane-2-carboxamido)pyridin-2-yl)-1-methyl-1H-1,2,3-triazol-5-yl)carbamate], the EC50 was 933 nM.
`C[C@@H](OC(=O)Nc1c(-c2ccc(NC(=O)C3CC(C)(C)C3)cn2)nnn1C)c1cccnc1Cl` [Compound 84, (R)-1-(2-chloropyridin-3-yl)ethyl (4-(5-(3,3-dimethylcyclobutane-l-carboxamido)pyridin-2-yl)-1-methyl-1H-1,2,3-triazol-5-yl)carbamate] was tested, and the EC50 was 14.5 nM.
In the case of `C[C@@H](O)C(=O)Nc1ccc(-c2nnn(C)c2NC(=O)O[C@H](C)c2cccnc2Cl)nc1` [Compound 124, (R)-1-(2-chloropyridin-3-yl)ethyl (4-(5-((R)-2-hydroxypropanamido)pyridin-2-yl)-1-methyl-1H-1,2,3-triazol-5-yl)carbamate], the EC50 is reported as 3630 nM.
For `C[C@@H](OC(=O)Nc1c(-c2ccc(NC(=O)C3CC(F)(F)C3)cn2)nnn1C)c1cccnc1Cl` [Compound 37, (R)-1-(2-chloropyridin-3-yl)ethyl (4-(5-(3,3-difluorocyclobutane-1-carboxamido)pyridin-2-yl)-1-methyl-1H-1,2,3-triazol-5-yl)carbamate], the EC50 was 54.6 nM.
For `C[C@@H](OC(=O)Nc1c(-c2ccc(NC(=O)C3CC4(C3)CC(F)(F)C4)cn2)nnn1C)c1cccnc1Cl` [Compound 41, (R)-1-(2-chloropyridin-3-yl)ethyl (4-(5-(6,6-difluorospiro[3.3]heptane-2-carboxamido)pyridin-2-yl)-1-methyl-1H-1,2,3-triazol-5-yl)carbamate], the EC50 was 38.1 nM.
`Cc1nnc(C(=O)Nc2ccc(-c3nnn(C)c3NC(=O)O[C@H](C)c3cc(F)cnc3F)nc2)o1` [Compound 257, (R)-1-(2,5-difluoropyridin-3-yl)ethyl (1-methyl-4-(5-(5-methyl-1,3,4-oxadiazole-2-carboxamido)pyridin-2-yl)-1H-1,2,3-triazol-5-yl)carbamate] gave an EC50 of 443 nM.
`C[C@@H](OC(=O)Nc1c(-c2ccc(NC(=O)C3CC(O)(C(F)(F)F)C3)cn2)nnn1C)c1cccnc1Cl` (stereo partly drawn) [Compound 136, (R)-1-(2-chloropyridin-3-yl)ethyl (4-(5-(3-hydroxy-3-(trifluoromethyl)cyclobutane-1-carboxamido)pyridin-2-yl)-1-methyl-1H-1,2,3-triazol-5-yl)carbamate] was tested, and the EC50 was 602 nM.
`C[C@@H](OC(=O)Nc1c(-c2ccc(NC(=O)[C@H]3C[C@@H]3C)cn2)nnn1C)c1cc(F)cnc1F` (mixture of isomers) [Compound 207, (R)-1-(2,5-difluoropyridin-3-yl)ethyl (1-methyl-4-(5-((1RS,2RS)-2-methylcyclopropane-1-carboxamido)pyridin-2-yl)-1H-1,2,3-triazol-5-yl)carbamate] was tested, and the EC50 was 41.2 nM.
`C[C@@H](OC(=O)Nc1c(-c2ccc(NC(=O)C3(C#N)CC4(CC4)C3)cn2)nnn1C)c1cccnc1Cl` [Compound 87, (R)-1-(2-chloropyridin-3-yl)ethyl (4-(5-(5-cyanospiro[2.3]hexane-5-carboxamido)pyridin-2-yl)-1-methyl-1H-1,2,3-triazol-5-yl)carbamate] gave an EC50 of 16.1 nM.
Compound `C[C@@H](OC(=O)Nc1c(-c2ncc(NC(=O)C34CC(C#N)(C3)C4)cc2F)nnn1C)c1cc(F)cnc1F` [Compound 337, (R)-1-(2,5-difluoropyridin-3-yl)ethyl (4-(5-(3-cyanobicyclo[1.1.1]pentane-1-carboxamido)-3-fluoropyridin-2-yl)-1-methyl-1H-1,2,3-triazol-5-yl)carbamate] has an EC50 of 163 nM.
For `C[C@@H](OC(=O)Nc1c(-c2cc(F)c(NC(=O)C3(C#N)CC3)cn2)nnn1C)c1cccnc1Cl` [Compound 183, (R)-1-(2-chloropyridin-3-yl)ethyl (4-(5-(1-cyanocyclopropane-1-carboxamido)-4-fluoropyridin-2-yl)-1-methyl-1H-1,2,3-triazol-5-yl)carbamate], the EC50 was 1060 nM.
With `C[C@@H](OC(=O)Nc1c(-c2ccc(NC(=O)[C@H]3C[C@@H]3c3ccccn3)cn2)nnn1C)c1cc(F)cnc1F` [Compound 266, (R)-1-(2,5-difluoropyridin-3-yl)ethyl (1-methyl-4-(5-((1S,2S)-2-(pyridin-2-yl)cyclopropane-1-carboxamido)pyridin-2-yl)-1H-1,2,3-triazol-5-yl)carbamate] the EC50 was 749 nM.
For `C[C@@H](OC(=O)Nc1c(-c2ccc(NC(=O)C34CC(F)(C3)C4)cn2)nnn1C)c1cc(F)cnc1F` [Compound 163, (R)-1-(2,5-difluoropyridin-3-yl)ethyl (4-(5-(3-fluorobicyclo[1.1.1]pentane-1-carboxamido)pyridin-2-yl)-1-methyl-1H-1,2,3-triazol-5-yl)carbamate], the EC50 was 32.6 nM.
For `CC(=O)Nc1ccc(-c2nnn(C)c2NC(=O)O[C@H](C)c2cc(F)cnc2Cl)nc1` [Compound 15, (R)-1-(2-chloro-5-fluoropyridin-3-yl)ethyl (4-(5-acetamidopyridin-2-yl)-1-methyl-1H-1,2,3-triazol-5-yl)carbamate], the EC50 was 452 nM.
For `C[C@@H](OC(=O)Nc1c(-c2ccc(NC(=O)c3ccc(C(F)F)nc3)cn2)nnn1C)c1cc(F)cnc1F` [Compound 222, (R)-1-(2,5-difluoropyridin-3-yl)ethyl (4-(5-(6-(difluoromethyl)nicotinamido)pyridin-2-yl)-1-methyl-1H-1,2,3-triazol-5-yl)carbamate], the EC50 was 41.7 nM.
